1 compound from US8124582B2, “Treatment of diabetes” (FibroGen, Inc., priority 2002, dated 2012) can be followed below.

Assay [1] deals with inducible nitric oxide synthase (iNOS). Kind of assay: In vivo iNOS mRNA expression (quantitative PCR). Also noted: species or system Swiss Webster male mice. The note with it: mice, oral gavage; within 8 hours following treatment, then returned to control levels; normalized to 18S rRNA; FIG. 10A. As for the experimental part: To determine gene induction patterns over time, twenty four Swiss Webster male mice (30-32 g) were obtained from Simonsen, Inc. and treated by oral gavage with a 4 ml/kg volume of either 0.5% carboxymethyl cellulose (CMC; Sigma-Aldrich, St. Louis Mo.) (0 mg/kg/day) or […] compound B (25 mg/ml in 0.5% CMC) (100 mg/kg). At 4, 8, 16, 24, 48, or 72 hours after the final dose, animals were anesthetized with isoflurane. The mice were then sacrificed and tissue samples of kidney, liver, brain, lung, and heart were isolated and stored in RNALATER solution (Ambion) at −80° C.
To investigate the dose response of compounds of the present invention, twelve Swiss Webster male mice (30-32 g) (obtained from Simonsen, Inc., Gilroy Calif.) were treated by oral gavage once per day for 4 days with a 4 ml/kg volume of either 0.5% carboxymethyl cellulose (CMC; Sigma-Aldrich, St. Louis Mo.), compound D (25 mg/ml in 0.5% CMC) (100 mg/kg/day), or compound B (7.5 and 25 mg/ml in 0.5% CMC) (30 and 100 mg/kg/day, respectively). Four hours after the final dose, animals were anesthetized, sacrificed, and approximately 150 mg of liver and each kidney were isolated and stored in RNALATER solution (Ambion) at −20° C.
Hypertension is a risk factor for diabetes and disorders and diseases associated with diabetes. The effects of compounds of the present invention on regulation of blood pressure were examined as follows. Animals were treated with compound B or compound D and RNA samples were prepared as described above in Example 4. […] Analysis of the relative level of gene expression was performed by quantitative PCR using a FASTSTART DNA MASTER SYBR GREEN I kit (Roche) and gene-specific primers, using a LIGHTCYCLER system (Roche), according to manufacturer's instructions. […]
The relative level of 18S ribosomal RNA gene expression was measured as a control. Quantitative PCR was performed using a QUANTITECT SYBR GREEN PCR kit (Qiagen) and gene-specific primers, using a LIGHTCYCLER system (Roche), according to manufacturer's instructions. […]

The next assay relates to HIF-1α. The assay can be described thus: HIF-1α stabilization in cells, nuclear fraction Western blot. In kind it is cell-based, Human. The conditions noted are these: various cell types, overnight incubation, 20% O2; FIG. 12A. The protocol: Stabilization of HIFα using compounds and methods of the present invention was examined as follows. Human cells derived from adenovirus-transformed fetal kidney epithelium (293A), cervical epithelial adenocarcinoma (HeLa), hepatocellular carcinoma (Hep3B), squamous carcinoma (SSC-25), and lung fibroblast (HLF) (see, e.g., American Type Culture Collection, Manassas Va.; and Qbiogene, Carlsbad Calif.) were separately seeded into 100 mm culture dishes and grown at 37° C., 20% O2, 10% CO2 in media as follows: HeLa cells in Dulbecco's Modification of Eagle's Medium (DMEM), 2% fetal bovine serum (FBS); HLF cells in DMEM, 10%FBS; 293A cells in DMEM, 5%FBS; and Hep3B cells in Minimal Essential Medium (MEM), Earle's BSS (Mediatech Inc., Herndon Va.), 2 mM L-glutamine, 0.1 mM non-essential amino acids, 1 mM sodium pyruvate, 10% FBS. When cell layers reached confluence, the media was replaced with OPTI-MEM media (Invitrogen Life Technologies, Carlsbad Calif.) and cell layers were incubated for approximately 24 hours in 20% O2, 10% CO2 at 37° C. Compound of the invention (one of compounds B, F, G, and H) or DMSO (0.5 to 1%) was then added to existing medium, and incubation was continued overnight.
Following incubation, the media was removed, centrifuged, and stored for analysis. […]
(In western blotting, separated proteins are transferred to a membrane and probed.)

A further assay deals with GluT-1. The assay can be described thus: GluT-1 protein levels in SCC-25 cells (Western blot). It is filed as cell-based, Human. The conditions noted are these: 10 and 25 μM, 16 hours, FIG. 1B. As for the experimental part:
Human SSC-25 (squamous cell carcinoma) or rat H9c2 (ventricular cardiomyocyte) cells were grown to confluence in 100 mm culture dishes at 37° C., 10% CO2 in DMEM with 10% fetal calf serum. Cells were then washed twice with PBS and incubated with vehicle control, compound D (10 and 25 μM), or compound C (5, 10, and 20 μM) for 16 hours. Plates were placed on ice, culture supernatant was removed, and lysis buffer-1 (LB-1: 10 mM Tris pH 7.4, 1 mM EDTA, 150 mM sodium chloride, 0.5% IGEPAL) was added. Cell lysates were harvested by scraping, incubated for 15 minutes on ice, and then centrifuged at 3000×g for 5 minutes at 4° C. The supernatant, which represents the cytosolic fraction, was collected and cytosolic proteins were separated under reducing conditions using SDS-polyacrylamide gel electrophoresis (SDS-PAGE) with equal amounts of protein loaded per lane.
SDS-PAGE was conducted at 150 V for 2 hours, after which the proteins were transferred to a PVDF membrane at 400 mA for 1.5 hours at 4° C. The membrane was incubated in blocking buffer for 2 hours or overnight and washed once with T-TBS prior to addition of anti-GluT-1 antibody (Alpha Diagnostics) diluted to working concentration in blocking buffer. […]

In the case of `O=C(O)c1c[nH]c2c(ccc3cccnc32)c1=O` [compound D, 4-Oxo-1,4-dihydro-[1,10]phenanthroline-3-carboxylic acid], in assay [1], the “expression of the gene encoding iNOS” value was “increased”. Also, in the assay with HIF-1α, the “HIFα stabilization (Western blot)” value is given as “stabilized HIFα in a dose-dependent manner”. Also, in the assay on GluT-1, the “protein levels of GluT-1” value is listed as “increased”.
